Source: ChEMBL document CHEMBL1201862, “PubChem BioAssay data set” (2004)
Values joined by “and” are separate entries in the source; they are usually repeats but may differ in a detail not shown here. Identical values can stand only once. Active and inactive are the calls of the source.

Columns and labels:
[1] = biological target: DNA damage-inducible transcript 3 protein (Mus musculus, UniProt P35639); type: functional, Cricetulus griseus
Streptococcus = assay: GAS UMAA2166 growth inhibition – luminescence, BacTiterGlo, counter-screen for streptokinase expression inhibitor project, dose response (AID 1915); type: functional, organism-based;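 note: potency for reduction of bacterial viability or growth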
Vero = assay: cells; type: functional; details: Chlorocebus sabaeus
Streptokinase A = biological target: T1, Streptokinase A (Streptococcus pyogenes serotype M1, UniProt P10520); assay: viability-normalized secreted streptokinase activity reduction – plasminogen activation absorbance, OD405, dose response (AID 1914); type: functional, Streptococcus pyogenes M1 GAS;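 note: secreted streptokinase activity via plasminogen activation per viability signal from cell pellet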
T1 sequence (P10520 whole entry): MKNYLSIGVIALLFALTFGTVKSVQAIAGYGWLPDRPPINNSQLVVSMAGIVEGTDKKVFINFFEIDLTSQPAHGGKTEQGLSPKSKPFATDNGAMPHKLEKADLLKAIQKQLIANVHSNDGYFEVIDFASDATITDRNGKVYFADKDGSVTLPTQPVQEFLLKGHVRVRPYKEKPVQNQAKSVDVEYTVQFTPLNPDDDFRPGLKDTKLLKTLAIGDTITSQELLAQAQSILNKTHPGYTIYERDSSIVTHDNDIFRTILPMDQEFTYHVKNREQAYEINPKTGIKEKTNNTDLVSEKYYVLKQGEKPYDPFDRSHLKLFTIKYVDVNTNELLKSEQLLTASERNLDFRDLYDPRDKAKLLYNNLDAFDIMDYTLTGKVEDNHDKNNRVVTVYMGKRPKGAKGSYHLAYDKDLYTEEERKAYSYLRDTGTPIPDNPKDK

[2] = test system: Streptococcus sp. 'group A'; assay: Streptococcus pyogenes SK(-)GAS viability under kanamycin – luminescence, BacTiterGlo, confirmation, counter-screen for streptokinase expression inhibitor project, dose response (AID 1900); type: functional, organism-based
[3] = biological target: T2, Runt-related transcription factor 1/Core-binding factor subunit beta (Homo sapiens, UniProt Q01196+Q13951); assay: Runt domain/CBFb-SMMHC interaction disruptors – biochemical, TR-FRET (AID 1438); type: protein assay
[4] = biological target: T2, Runt-related transcription factor 1/Core-binding factor subunit beta; assay: disruptors of Runt domain/CBFb-SMMHC interaction – biochemical, FRET, Cerulean-Runt, Venus-CBFb-SMMHC, uHTS, […] (AID 1434); type: protein assay
Troponin, cardiac muscle = Troponin, cardiac muscle (Homo sapiens, UniProt P19429+P45379+P63316); assay: Fluorescence-based biochemical high throughput dose response assay for activators of the calcium sensitivity of cardiac Regulated Thin Filaments (RTF). [Related pubchem assays (depositor defined):AID493008, AID493018, AID504382, AID504383]; type: protein-complex assay
[5] = biological target: T3, Zinc finger protein mex-5 (Caenorhabditis elegans, UniProt Q9XUB2); assay: potency of MEX-5 RNA-binding blockers – biochemical, C. elegans, fluorescence polarization, dose response (AID 1960)
T3 sequence (Q9XUB2 whole entry): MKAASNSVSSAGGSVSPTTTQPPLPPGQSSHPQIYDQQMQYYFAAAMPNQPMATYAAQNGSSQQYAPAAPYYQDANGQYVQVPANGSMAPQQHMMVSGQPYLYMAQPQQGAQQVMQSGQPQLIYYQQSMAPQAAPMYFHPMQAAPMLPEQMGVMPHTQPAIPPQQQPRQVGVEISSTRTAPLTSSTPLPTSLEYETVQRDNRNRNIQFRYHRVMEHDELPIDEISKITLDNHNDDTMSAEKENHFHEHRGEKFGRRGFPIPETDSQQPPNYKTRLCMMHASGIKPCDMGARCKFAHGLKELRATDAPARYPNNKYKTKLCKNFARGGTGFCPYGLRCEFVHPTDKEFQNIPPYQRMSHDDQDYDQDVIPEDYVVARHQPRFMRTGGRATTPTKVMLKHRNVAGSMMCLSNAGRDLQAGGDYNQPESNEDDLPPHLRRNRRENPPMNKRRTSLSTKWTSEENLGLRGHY

[6] = biological target: T4, RNA-binding protein pos-1 (Caenorhabditis elegans, UniProt G5EF15); assay: disruptors of C. elegans POS-1 RNA interaction – biochemical, fluorescence polarization, dose response (AID 1964);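 note: purified POS-1 fused to maltose binding protein made in E. coli; potency of compounds blocking POS-1 binding to fluorescent RNA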
T4 sequence (G5EF15 whole entry): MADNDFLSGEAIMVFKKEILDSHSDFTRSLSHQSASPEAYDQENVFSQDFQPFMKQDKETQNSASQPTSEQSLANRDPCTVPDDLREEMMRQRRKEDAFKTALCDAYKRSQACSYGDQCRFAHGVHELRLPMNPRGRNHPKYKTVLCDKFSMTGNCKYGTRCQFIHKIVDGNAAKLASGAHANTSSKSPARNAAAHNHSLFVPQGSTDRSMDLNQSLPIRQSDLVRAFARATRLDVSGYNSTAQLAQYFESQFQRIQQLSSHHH

[7] = viability of HCT116 lacking mutant beta-catenin – cell-based, human colon tumor, dose response (AID 1045); type: functional;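 note: HCT116 colon tumor cells with beta catenin knocked out; cells exposed to compound for 60 hours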
Aspartyl aminopeptidase = biological target: T5, Aspartyl aminopeptidase (Plasmodium falciparum 3D7, UniProt Q8I2J3)
T5 sequence (Q8I2J3 whole entry): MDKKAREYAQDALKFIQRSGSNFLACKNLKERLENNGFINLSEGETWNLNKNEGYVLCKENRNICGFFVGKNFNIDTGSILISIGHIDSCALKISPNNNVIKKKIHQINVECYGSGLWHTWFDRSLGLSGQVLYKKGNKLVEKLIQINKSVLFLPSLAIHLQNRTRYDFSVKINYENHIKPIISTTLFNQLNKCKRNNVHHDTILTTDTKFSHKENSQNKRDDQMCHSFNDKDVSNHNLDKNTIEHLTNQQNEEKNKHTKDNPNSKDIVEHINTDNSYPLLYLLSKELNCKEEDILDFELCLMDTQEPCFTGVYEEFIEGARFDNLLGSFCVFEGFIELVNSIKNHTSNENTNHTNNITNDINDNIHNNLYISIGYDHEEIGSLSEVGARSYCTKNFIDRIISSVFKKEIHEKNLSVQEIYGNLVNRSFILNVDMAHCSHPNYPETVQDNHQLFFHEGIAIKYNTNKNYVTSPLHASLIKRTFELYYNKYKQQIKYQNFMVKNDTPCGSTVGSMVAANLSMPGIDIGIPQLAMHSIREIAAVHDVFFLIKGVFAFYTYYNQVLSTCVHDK

Large T antigen = Large T antigen (Simian virus 40, UniProt P03070); type: functional, Betapolyomavirus macacae;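 note: Confirmatory-stage PubChem screen for compounds that inhibit SV40 T antigen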
[8] = viability of PTEN-deleted HCT116 cells – cell-based, HCT116 PTEN knockout, dose response (AID 1047); type: functional;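 note: HCT116 colon tumor cells with PTEN knocked out; cells exposed to compound for 60 hours before readout; potency for loss of cell viability measured by luminescence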
[9] = biological target: FAD-linked sulfhydryl oxidase ALR (Homo sapiens, UniProt P55789); assay: ALR-catalysed DTT oxidation blockers – biochemical, H2O2 detection, luminescence, cherry-pick, dose response (AID 493248)
Procathepsin L = Procathepsin L (Homo sapiens, UniProt P07711)
[10] = HPDE-C7 pancreatic duct cell viability loss – fluorescence, HTS (AID 430); type: functional, cell-based; details: Homo sapiens
Cytochrome P450 1A2 = biological target: T6, Cytochrome P450 1A2 (Homo sapiens, UniProt P05177);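 note: PubChem cytochrome P450 panel assay, CYP1A2 panel member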
T6 sequence (P05177 whole entry): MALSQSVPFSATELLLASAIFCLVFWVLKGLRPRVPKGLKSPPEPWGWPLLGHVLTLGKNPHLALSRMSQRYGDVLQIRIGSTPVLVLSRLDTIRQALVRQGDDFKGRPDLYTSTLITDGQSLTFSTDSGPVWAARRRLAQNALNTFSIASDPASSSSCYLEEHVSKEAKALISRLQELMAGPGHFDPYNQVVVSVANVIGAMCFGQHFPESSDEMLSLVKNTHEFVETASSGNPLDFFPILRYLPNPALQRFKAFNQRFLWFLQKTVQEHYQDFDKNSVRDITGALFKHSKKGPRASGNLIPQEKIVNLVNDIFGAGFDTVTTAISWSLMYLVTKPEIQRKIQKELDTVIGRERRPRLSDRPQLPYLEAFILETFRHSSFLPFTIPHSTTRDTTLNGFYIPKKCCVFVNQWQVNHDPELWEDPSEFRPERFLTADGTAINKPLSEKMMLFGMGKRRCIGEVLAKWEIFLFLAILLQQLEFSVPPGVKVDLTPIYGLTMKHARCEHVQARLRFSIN

[11] = Luminescence Cell-Based Dose Retest to Confirm Inhibitors of Cancer Stem Cells. [Related pubchem assays (depositor defined):AID2717, AID2721]; type: functional; details: Homo sapiens
Cytochrome P450 3A4 = Cytochrome P450 3A4 (Homo sapiens, UniProt P08684);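 note: CYP3A4 tested as one member of a cytochrome P450 panel screen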
X-box-binding protein 1 = X-box-binding protein 1 (Homo sapiens, UniProt P17861); type: functional, Cricetulus griseus;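 note: confirmatory dose-response counter-screen serving a CHOP assay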
[12] = viability loss of HPDE-C7K cells – cell-based, fluorescence, HTS, primary screen (AID 431); type: functional; details: Homo sapiens
[13] = HEK-293T cell viability reduction – luminescence, B-cell screen hits, cytotoxicity control for BCR NF-kB inhibitor project, dose response (AID 489021); type: functional, cell-based;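 note: HEK-293T cells carrying an NF-kB luciferase reporter; cells exposed to compound for about 14 hours before viability readout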
[14] = biological target: Lysosomal acid glucosylceramidase (Homo sapiens, UniProt P04062); assay: Dose response cell-based high throughput screening assay to identify enhancers of beta-glucosidase activity. [Related pubchem assays: 784 ]; type: functional
[15] = viability of uninfected HEp-2 cells – cell-based, HTS, cytotoxicity control for RSV inhibitor project, dose response (AID 2410); type: functional; details: human respiratory syncytial virus
[16] = biological target: T7, Apoptotic protease-activating factor 1 (Homo sapiens, UniProt O14727); type: functional
T7 sequence (O14727 whole entry): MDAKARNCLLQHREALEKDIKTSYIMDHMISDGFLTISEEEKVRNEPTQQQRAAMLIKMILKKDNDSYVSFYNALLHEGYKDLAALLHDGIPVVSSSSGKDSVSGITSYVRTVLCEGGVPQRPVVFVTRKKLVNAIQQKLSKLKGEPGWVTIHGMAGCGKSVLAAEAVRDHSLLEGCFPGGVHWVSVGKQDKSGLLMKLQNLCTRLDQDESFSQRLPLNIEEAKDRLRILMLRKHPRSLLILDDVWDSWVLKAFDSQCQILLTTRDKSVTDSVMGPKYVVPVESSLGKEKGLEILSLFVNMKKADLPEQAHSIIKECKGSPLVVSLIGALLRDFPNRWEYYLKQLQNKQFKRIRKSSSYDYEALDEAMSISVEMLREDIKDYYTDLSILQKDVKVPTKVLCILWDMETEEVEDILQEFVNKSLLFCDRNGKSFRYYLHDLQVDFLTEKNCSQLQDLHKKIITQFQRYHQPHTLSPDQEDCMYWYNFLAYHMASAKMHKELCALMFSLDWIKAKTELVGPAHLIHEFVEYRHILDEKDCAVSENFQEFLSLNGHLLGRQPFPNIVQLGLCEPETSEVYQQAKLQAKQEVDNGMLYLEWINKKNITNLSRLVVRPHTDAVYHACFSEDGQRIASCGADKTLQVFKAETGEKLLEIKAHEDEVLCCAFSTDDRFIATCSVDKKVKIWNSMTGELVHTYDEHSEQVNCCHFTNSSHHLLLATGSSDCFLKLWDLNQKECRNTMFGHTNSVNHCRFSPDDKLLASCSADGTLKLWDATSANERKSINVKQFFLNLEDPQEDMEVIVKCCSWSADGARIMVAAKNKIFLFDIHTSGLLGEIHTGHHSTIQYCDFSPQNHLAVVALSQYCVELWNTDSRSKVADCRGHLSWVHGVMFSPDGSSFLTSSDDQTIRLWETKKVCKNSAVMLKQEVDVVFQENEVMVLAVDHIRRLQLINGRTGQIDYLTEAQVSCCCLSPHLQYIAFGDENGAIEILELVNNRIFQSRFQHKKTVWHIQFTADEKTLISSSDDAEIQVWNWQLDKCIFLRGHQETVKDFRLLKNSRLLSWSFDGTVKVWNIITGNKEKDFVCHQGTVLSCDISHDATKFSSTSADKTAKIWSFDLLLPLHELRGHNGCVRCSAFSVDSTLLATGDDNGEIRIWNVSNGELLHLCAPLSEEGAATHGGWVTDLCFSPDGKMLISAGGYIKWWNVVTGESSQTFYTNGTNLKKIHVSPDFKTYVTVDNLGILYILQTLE

[17] = biological target: RNA-editing ligase 1, mitochondrial (Trypanosoma brucei brucei, UniProt P86926); assay: inhibition of trypanosome RNA editing ligase – biochemical, fluorescence, Trypanosoma brucei, dose response (AID 1117295); type: functional

With `O=C(CN1c2ccccc2Sc2ccccc21)NNC(=O)Nc1cccc(Cl)c1` the “Absolute IC50 (CHOP)” value [1] was 10 µM, the EC50 (Streptococcus) was 18.5 µM (active) and the CC50 (Vero) was 19 µM (active). The EC50 (Streptokinase A) was > 150 µM (not active) and the EC50 [2] was 4.41 µM (active).

With `Cc1cc(=O)oc2c3c4c(cc12)OCCN4CCC3` the IC50 [3] was > 100 µM (inactive) and the IC50 [4] was < 0.195 µM (inactive).

For `Fc1ccc(-c2n[nH]cc2CN(CC2CCC2)CC2CCCO2)c(F)c1` (centres undefined), the EC50 (Troponin, cardiac muscle) was > 71.5 µM (inactive).

With `O=C(Nc1ccc(Cl)cn1)C1COc2ccccc2O1` (centres undefined) the EC50 (Troponin, cardiac muscle) was > 71.5 µM (inactive).

In the case of `Oc1ccc(O)c(-c2cnns2)c1`, the EC50 [5] is reported as 6.91 µM (active), the EC50 [6] is reported as > 300 µM (not active) and the EC50 [7] is reported as 365 µM (active). The IC50 (Aspartyl aminopeptidase) was 1.89 µM (active), the IC50 (Large T antigen) was 10 µM (active) and the EC50 [8] was 47.1 µM (active). For the same molecule, the AC50 [9] was 4.57 µM (active), the IC50 (Procathepsin L) was > 59.6 µM (not active) and the IC50 [3] was 20.5 µM (active). The IC50 [4] was 33.8 µM (active).

In the case of `O=c1[nH]c2ccccc2n1C1CCN(CCCC(c2ccc(F)cc2)c2ccc(F)cc2)CC1` [PIMOZIDE], the EC50 [10] is reported as 13.6 µM (active), the AC50 (Cytochrome P450 1A2) is reported as 31.6 µM (inconclusive) and 15.8 µM (inconclusive) and the AC50 [11] is reported as 3.79 µM (active). For the same molecule, the AC50 (Cytochrome P450 3A4) was “inconclusive”, the “Absolute IC50 (XBP1)” value (X-box-binding protein 1) was < 10 µM and the EC50 [7] was 7.54 µM (active). For the same molecule, the EC50 [8] was 6.38 µM (active) and the EC50 [12] was 18.9 µM (active).

For `C(=N\Nc1nc(Nc2ccccc2)nc(Nc2ccccc2)n1)/c1cccnc1`, the IC50 [13] was 41.3 µM (inactive).

For `CCC(C)NC(=O)c1c(N)n(CC2CCCO2)c2nc3ccccc3nc12` (centres undefined), the EC50 [14] was > 50 µM (not active), the “Absolute IC50 (CHOP)” value [1] was 10 µM and the CC50 [15] was 20.3 µM (active). The IC50 [16] was 18.8 µM (active) and the IC50 [17] was 27.7 µM (inactive).

With `CCOc1ccc(-c2nnc(SCC(=O)NC3CC3)o2)cc1` the IC50 [13] was > 80 µM (inactive).
